Where two headings read alike, the source gives them in different places. Marks after values point to notes of the source that are not given here.
How the values were obtained:
[1] = tested on: Rauscher MuLV; assay: Anti-viral response to Rauscher MuLV; type: in vivo, mice
Source text: Innate mechanisms of anti-viral immunity are important to survival of the host. The Rauscher murine leukemia virus (MuLV) is an example of a highly virulent animal retrovirus infection, first isolated and characterized by Dr. Rauscher from BALB/c mouse tissues in 1962. […] The virus employed in present GLP/blinded study was a murine leukemia complex known to induce progressive erythroleukemia in mice (i.e., Rauscher MuLV and replication-defective Rauscher spleen focus-forming virus). Disease manifested within about 6 days with death by about 50 days. Measurements of splenomegaly, blood reverse transcriptase, virus plaque assays (i.e., XC-plaque assay for viremia using SC-1 host cells) and serum anti-viral antibody titers were used to assess infection. Spleens achieved about 2.0 grams in weight within 21 days of infection, as compared with a normal spleen weights in an uninfected animals of about 0.1 gram.
Mice were inoculated with Rauscher MuLV complex (0.1 ml/7.8×10^4 PFU/mL) on day 0 and sacrificed on day 21. Test groups were comprised of 10 mice and control groups 6 mice. Control articles included saline and AZT (in drinking water at about 1.25 mg/mouse/day≈63 mg/kg/day/mouse). […] A non-infected group of mice was also sacrificed on day 21 to provide normal control values.
In EXAMPLE 38, SC-1 cells were originally derived from murine embryos, and XC cells (a rat tumor cell line induced by Rous Sarcoma Virus) were obtained from the ATCC in Rockville, Md.

[2] = tested on: C. albicans; type: in vivo, mice
[3] = tested on: Staphylococcus aureus; assay: Survival after Staphylococcus aureus peritonitis, therapeutic treatment 1 hour after challenge; type: in vivo, mice; details: 1 MED
Procedure: EXAMPLES 32-34, above, test substance (i.e., L-Glu-L-Trp alone or in combination with antibiotic, or antibiotic alone) was injected sc, ip, po one hour after the bacterial challenge.

[4] = tested on: Staphylococci; assay: Antibiotic sensitivity (doubling-dilution, MIC-2000) of patient isolates before and after Stage 1; type: cell-based
Procedure: Antibiotics were administered according to established dosages and routes: i.e., penicillin, Ampicillin, oxacillin, tetracycline, erythromycin, garamycin; administered by intramuscular route. Antibiotics were chosen according to the antibiotic sensitivity of the Staphylococci isolated from the respective patients. (Antibiotic sensitivity was determined by testing staphylococcal isolates for their sensitivity in an antibiotic sensitivity doubling-dilution assay with the aid of the semi-automatic MIC-2000 system, Dynatech, USA).
Staphylococci were isolated from patients before and after treatment in Stage 1 with L-Glu-L-Trp in order to determine whether a favorable reversal of T-lymphocyte immunodeficiency might lead to a change in the antibiotic sensitivity. The isolated bacterial colonies following Stage I were typed as follows: namely, in 16 patients S. aureus, in 34, S. epidermidis, in 2 saprophytic Staphylococci. In all cases the same types of Staphylococci were isolated following treatment with L-Glu-L-Trp, but in 4 patients the predominant Staphylococci in the isolates changed from S. aureus to S. epidermidis (n=2), and saprophytic Staphylococci (n=2).
Antibiotic sensitivity of Staphylococci were determined by doubling-dilution methods with the aid of the semiautomatic MIC-2000 system (Dynatech, USA).

[5] = tested on: Staphylococcus aureus; assay: Survival after acute peritonitis with LD100 dose of antibiotic-resistant Staphylococcus aureus, prophylactic treatment; details: for Percentage Survivors: 1 MED
[6] = tested on: E. coli; assay: Survival after acute peritonitis with LD100 dose of E. coli; type: in vivo, mice; details: 1 MED
[7] = tested on: hepatitis B; assay: Children with chronic persistent hepatitis B; type: in vivo, human
Procedure: In accord with a USSR Ministry of Health decision 125 children suffering with chronic persistent hepatitis B were entered into this trial over a two month period. Group 1 consisted of 35 children who received decaris immunomodulatory therapy; Group 2, 38 children who received thymalin treatments; Group 3, […] who received L-Glu-L-Trp; and, Group 4, 32 children who received only conventional symptom specific therapy.
L-Glu-L-Trp was administered at a dose of 2 μg/kg of body mass, im, daily for […], and a repeat (identical) course of treatment was administered 10 days after termination of the first course.

[8] = tested on: YAC-1 target cells; assay: NK cytotoxic activity of splenocytes on YAC-1 target cells; type: in vivo, C3H/HeJ mice
[9] = tested on: Mycobacterium tuberculosis; design: species or system human; details: in vivo
[10] = tested on: Pseudomonas aeruginosa; assay: Survival after acute peritonitis with LD100 dose of Pseudomonas aeruginosa; type: in vivo, mice; details: 1 MED
[11] = 25 mg/kg, days 0, 1, 2, 3, and 4
[12] = 50 mg/kg, days 0, 1, 2, 3, and 4
[13] = 100 mg/kg, days 0, 1, 2, 3, and 4
[14] = 200 mg/kg, days 0, 1, 2, 3, and 4
[15] = After Stage 1 Treatment (L-Glu-L-Trp only)
[16] = 20 mg/kg, days 0, 1, 2, 3, and 4 (Group 8)
[17] = 20 mg/kg, days −2, −1, 0, +1, and +2 (Group 10)

## Cc1cn([C@H]2C[C@H](N=[N+]=[N-])[C@@H](CO)O2)c(=O)[nH]c1=O [AZT, reference compound]
[1]; [11]
  Reduction Splenomegaly (%): 46%
  Spleen Weight (mean ± SD): 0.31 ± 0.05
[1]; [12]
  Reduction Splenomegaly (%): 33%
  Spleen Weight (mean ± SD): 0.35 ± 0.17
[1]; [13]
  Reduction Splenomegaly (%): 52%
  Spleen Weight (mean ± SD): 0.29 ± 0.02
[1]; [14]
  Reduction Splenomegaly (%): 46%
  Spleen Weight (mean ± SD): 0.31 ± 0.09

## C[C@@H]1[C@H](O)[C@@H](C)/C=C/C=C/C=C/C=C/C=C/C=C/C=C/[C@H](O[C@@H]2O[C@H](C)[C@@H](O)[C@H](N)[C@@H]2O)C[C@@H]2O[C@](O)(C[C@@H](O)C[C@@H](O)[C@H](O)CC[C@@H](O)C[C@@H](O)CC(=O)O[C@H]1C)C[C@H](O)[C@H]2C(=O)O [Amphotericin, reference compound]
[2]; 0.063 mg/kg
  Germ Tube (%): 20* %
[2]; 0.125 mg/kg
  Germ Tube (%): 17* %
[2]; 0.25 mg/kg
  Germ Tube (%): 14* %
[2]; 0.5 mg/kg
  Germ Tube (%): 3* %
[2]; 1 mg/kg
  Germ Tube (%): 1* %

## CC1(C)S[C@@H]2[C@H](NC(=O)[C@H](N)c3ccccc3)C(=O)N2[C@H]1C(=O)O [Ampicillin, reference compound]
[3]; 24 hours
  Percentage Survivors: 75.0* %
[3]; 48 hours
  Percentage Survivors: 44.4* %
[3]; 72 hours
  Percentage Survivors: 30.6* %
[4]; [15]
  Mean minimum inhibitory concentration (MIC): 2.64 ± 0.60 µg/mL
[4]; Before Treatment
  Mean minimum inhibitory concentration (MIC): 8.10 ± 0.49 µg/mL
[5]; 24 hours
  Percentage Survivors: 75* %
[5]; 48 hours
  Percentage Survivors: 44.4* %
[5]; 72 hours
  Percentage Survivors: 30.6* %
[5]; ip one hour after bacterial challenge
  Mean effective dose (MED) for 100% survival after one LD50 dose of methicillin-sensitive staphylococci: 100 mg/kg
[6]; 24 hours after injection
  Percentage Survivors: 33.3* %
[6]; 48 hours after injection
  Percentage Survivors: 22.2* %
[6]; 72 hours after injection
  Percentage Survivors: 22.2* %

## Cc1nnc(SCC2=C(C(=O)O)N3C(=O)[C@@H](NC(=O)Cn4cnnn4)[C@H]3SC2)s1 [Cephamezine]
[4]; [15]
  Mean minimum inhibitory concentration (MIC): 1.33 ± 0.53 µg/mL
[4]; Before Treatment
  Mean minimum inhibitory concentration (MIC): 3.52 ± 0.94 µg/mL

## O=C(Cc1cccs1)N[C@@H]1C(=O)N2C(C(=O)[O-])=C(C[n+]3ccccc3)CS[C@H]12 [Ceporin]
[4]; [15]
  Mean minimum inhibitory concentration (MIC): 1.82 ± 0.67 µg/mL
[4]; Before Treatment
  Mean minimum inhibitory concentration (MIC): 5.69 ± 0.86 µg/mL

## CN[C@@H]1[C@@H](O)[C@@H](O[C@@H]2[C@@H](O)[C@H](O[C@H]3OC(CN)=CC[C@H]3N)[C@@H](N)C[C@H]2N)OC[C@]1(C)O [Cisomycin]
[4]; [15]
  Mean minimum inhibitory concentration (MIC): 1.59 ± 0.58 µg/mL
[4]; Before Treatment
  Mean minimum inhibitory concentration (MIC): 3.46 ± 0.90 µg/mL

## c1ccc([C@H]2CN3CCSC3=N2)cc1 [Descaris]
[7]; Group 1, Pre-Treatment ALCT Activity None
  Percent of Subjects Disease Free at 6 Months After Treatment: 100%
[7]; Group 2, Pre-Treatment ALCT Activity Moderate
  Percent of Subjects Disease Free at 6 Months After Treatment: 67%
[7]; Group 3, Pre-Treatment ALCT Activity High
  Percent of Subjects Disease Free at 6 Months After Treatment: 67%

## NC[C@H]1O[C@H](O[C@H]2[C@H](O)[C@@H](O[C@H]3O[C@H](CO)[C@@H](O)[C@H](N)[C@H]3O)[C@H](N)C[C@@H]2N)[C@H](O)[C@@H](O)[C@@H]1O [Kanamycin]
[4]; [15]
  Mean minimum inhibitory concentration (MIC): 2.09 ± 0.54 µg/mL
[4]; Before Treatment
  Mean minimum inhibitory concentration (MIC): 6.32 ± 0.58 µg/mL

## CC(=O)OCC1=C(C(=O)O)N2C(=O)[C@@H](NC(=O)Cc3cccs3)[C@H]2SC1 [Keflin]
[4]; [15]
  Mean minimum inhibitory concentration (MIC): 1.86 ± 0.69 µg/mL
[4]; Before Treatment
  Mean minimum inhibitory concentration (MIC): 4.49 ± 0.93 µg/mL

## Cc1nnc(SCC2=C(C(=O)O)N3C(=O)[C@@H](NC(=O)Cn4cnnn4)[C@H]3SC2)s1 [Kefzol]
[4]; [15]
  Mean minimum inhibitory concentration (MIC): 1.86 ± 0.93 µg/mL
[4]; Before Treatment
  Mean minimum inhibitory concentration (MIC): 4.61 ± 0.87 µg/mL

## O=C(N[C@H](CO)[C@H](O)c1ccc([N+](=O)[O-])cc1)C(Cl)Cl [Levomycetin]
[4]; [15]
  Mean minimum inhibitory concentration (MIC): 4.58 ± 0.67 µg/mL
[4]; Before Treatment
  Mean minimum inhibitory concentration (MIC): 9.17 ± 0.36 µg/mL

## Cc1onc(-c2ccccc2)c1C(=O)N[C@@H]1C(=O)N2[C@@H]1SC(C)(C)[C@@H]2C(=O)O [Oxacillin]
[4]; [15]
  Mean minimum inhibitory concentration (MIC): 1.56 ± 0.45 µg/mL
[4]; Before Treatment
  Mean minimum inhibitory concentration (MIC): 5.11 ± 0.63 µg/mL

## CC1(C)S[C@@H]2[C@H](NC(=O)Cc3ccccc3)C(=O)N2[C@H]1C(=O)O [Penicillin]
[4]; [15]
  Mean minimum inhibitory concentration (MIC): 2.52 ± 0.70 µg/mL
[4]; Before Treatment
  Mean minimum inhibitory concentration (MIC): 9.45 ± 0.28 µg/mL

## [H]/N=C(/N)N[C@H]1[C@H](O)[C@@H](O)[C@H](O[C@@H]2O[C@@H](C)[C@](O)(C=O)[C@H]2O[C@@H]2O[C@@H](CO)[C@H](O)[C@@H](O)[C@@H]2NC)[C@@H](N/C(N)=N\[H])[C@@H]1O [Streptomycin]
[4]; [15]
  Mean minimum inhibitory concentration (MIC): 3.39 ± 0.66 µg/mL
[4]; Before Treatment
  Mean minimum inhibitory concentration (MIC): 6.71 ± 0.59 µg/mL

## O=P1(N(CCCl)CCCl)NCCCO1 (centres unmarked) [cyclophosphamide, Cyclophosphamide, reference compound]
[8]; dose 50 (μg/kg), reference treatment
  % Cytotoxicity (mean +/− S.D.): 6.4 ± 0.7%
[8]; dose 50, vs saline
  Cytotoxicity Change (%): −25 ↓ %
[8]; reference treatment
  NK activity: decreased NK activity

## c1ccc([C@H]2CN3CCSC3=N2)cc1 [decaris]
[9]
  Considerable Improvement, % of patients: 5%
  Considerable Improvement, No. of patients: 1
  Improvement, % of patients: 82%
  Improvement, No. of patients: 18
  No Change, % of patients: 13%
  No Change, No. of patients: 3
  Patients with closure of degeneration foci and cavities in the lungs: 10
  Patients with closure of foci and cavities: 45%
  Patients with “considerable improvement”: 5%
  Patients with “improvement”: 18
  Response rate: 86%

## Gentamycin [reference compound]
[10]; 24 hours after injection
  Percentage Survivors: 27.8* %
[10]; 48 hours after injection
  Percentage Survivors: 27.8* %
[10]; 96 hours after injection
  Percentage Survivors: 27.8* %
[4]; [15]
  Mean minimum inhibitory concentration (MIC): 1.32 ± 0.49 µg/mL
[4]; Before Treatment
  Mean minimum inhibitory concentration (MIC): 5.47 ± 0.92 µg/mL

## Poly(IC)
[1]; [16]
  Reduction Splenomegaly (%): 27%
  Spleen Weight (mean ± SD): 0.37 ± 0.22
[1]; [17]
  Reduction Splenomegaly (%): −78%
  Spleen Weight (mean ± SD): 0.72 ± 0.29

— patent US6368788B1 (priority 1987, dated 2002)
